Laboratory results reported in PubChem BioAssay (NCI).
Values joined by “and” are separate entries in the source; they are usually repeats but may differ in a detail not shown here. Identical values can stand only once.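 Cells were grown in 96-well plates and exposed to each compound for 48 hours at five concentrations; endpoints were interpolated linearly between bracketing concentrations, or set to the highest concentration if not reached. GI50: concentration for 50% inhibition of growth. TGI is the concentration that stops growth completely.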

Experiments:
Assay in all cases: NCI anticancer screen, dose series, 48 h
[1] = tested on: OVCAR-3 ovarian
[2] = tested on: SN12C renal
[3] = tested on: DMS 114 small cell lung
[4] = tested on: M14 melanoma
[5] = tested on: HCT-15 colon
[6] = tested on: SF-268 CNS
[7] = tested on: IGROV1 ovarian
[8] = tested on: MDA-N
[9] = tested on: MDA-MB-435
[10] = tested on: PC-3 prostate

SMILES | TGI [1] | TGI [2] | TGI [3] [µM] | TGI [4] | TGI [5] | TGI [6] [µM] | TGI [7] | TGI [8] | TGI [9] | TGI [10] | GI50 [2] | GI50 [1] [µM] | GI50 [3] [µM] | GI50 [4] [µM] | GI50 [6] [µM] | GI50 [7] [µM] | GI50 [5] [µM] | GI50 [8] [µM] | GI50 [9] [µM] | GI50 [10] [µM]
CSCCOC(=O)C(=[N+]=[N-])c1ccc([N+](=O)[O-])cc1 | > 100 µM | > 100 µM | > 100 | > 100 µM | > 100 µM | > 100 | > 100 µM | – | – | – | – | – | – | – | – | – | – | – | – | –
OC1C2CCC1C1C3C=CC(C3)C21 (stereo not given) | > 100 µM | – | > 100 | > 100 µM | > 100 µM | > 100 | > 100 µM | – | – | – | – | – | – | – | – | – | – | – | – | –
CC(=O)C1(N=Nc2ccc(S(N)(=O)=O)cc2)CCOC1=O (stereo not given) | > 100 µM | > 100 µM | – | > 100 µM | > 100 µM | > 100 | > 100 µM | > 100 µM | > 100 µM | > 100 µM | – | – | – | – | – | – | – | – | – | –
O=c1c2ccccc2c2ccccc2c(=O)n1Cc1ccc2c(c1)OCO2 | > 100 µM | > 100 µM | – | > 100 µM | > 100 µM | > 100 | > 100 µM | 28.7 µM | 55.7 µM | > 100 µM | – | – | – | – | – | – | – | – | – | –
CCCCCCCCCCCCCCCCOP(=O)(O)OP(=O)(O)OCC1OC(n2ccc(N)nc2=O)C(O)C1O (stereo not given) | > 100 µM | > 100 µM | – | > 100 µM and 98.4 µM | > 100 µM | > 100 | > 100 µM | > 100 µM | > 100 µM | > 100 µM | > 100 µM and 19.4 µM | – | – | – | – | – | – | – | – | –
CCC[CH2][Sn]1([CH2]CCC)[O]C(=O)c2ccc(C)cc2[O]1 | 2.43 µM | 1.77 µM | 0.587 | 1.84 µM | – | 1.46 | 2.44 µM | – | – | – | 0.511 µM | 1.18 | 0.21 | 0.584 | 0.46 | 1.17 | – | – | – | –
C[n+]1ccc(-c2c3nc(c(-c4cc[n+](C)cc4)c4ccc([n-]4)c(-c4cc[n+](C)cc4)c4nc(c(-c5cc[n+](C)cc5)c5ccc2[n-]5)C=C4)C=C3)cc1.[I-].[Zn+2] | 28.1 µM | 43.3 µM | 22.6 | 35.5 µM | > 100 µM | 25.9 | 57.8 µM | – | – | – | 19.7 µM | 7.02 | 7.11 | 14 | 11 | 25.4 | > 100 | – | – | –
CC1(C)CCC(C)(C)c2c1ccc(O)c2Cc1c(O)ccc2c1C(C)(C)CCC2(C)C | 4.32 µM | 3.31 µM | – | 3.75 µM | 3.98 µM | 6.75 | 3.68 µM | 3.73 µM | 3.48 µM | 3.79 µM | – | – | – | – | – | – | – | – | – | –
CC1OC(OC2C(CO)OC(O[C@H]3CC[C@@]4(C)C(=CC[C@H]5[C@@H]6C[C@@H]7O[C@]8(CC[C@@H](C)CN8)[C@@H](C)[C@@H]7[C@@]6(C)CC[C@@H]54)C3)C(O)C2O)C(O)C(O)C1O (stereo not given in full) | > 100 µM | > 100 µM | > 100 | > 100 µM | > 100 µM | > 100 | > 100 µM | – | – | – | – | – | – | – | – | – | – | – | – | –
CC(C)(C)OC(=O)NC(CO)c1cccc(OCc2ccccc2)c1 (stereo not given) | > 100 µM | > 100 µM | > 100 | > 100 µM | > 100 µM | > 100 | > 100 µM | – | – | – | – | – | – | – | – | – | – | – | – | –
CC[C@@H]1C[C@H]2CC3c4[nH]c5ccc(O)cc5c4CCN(C2)C31 | > 100 µM | > 100 µM | > 100 | > 100 µM | > 100 µM | > 100 | > 100 µM | – | – | – | – | – | – | – | – | – | – | – | – | –
COc1ccc(OC)c(-c2cc(=O)c3c(OC)c(OC)c(OC)c(OC)c3o2)c1 | 75.3 µM | > 100 µM | – | > 100 µM | 77.5 µM | > 100 | > 100 µM | > 100 µM | > 100 µM | – | – | – | – | – | – | – | – | – | – | –
O=c1oc(=O)c2oc3ccccc3oc1=2 | > 100 µM | > 100 µM | > 100 | > 100 µM | > 100 µM | > 100 | > 100 µM | – | – | – | – | – | – | – | – | – | – | – | – | –
O=C1CC(O)(c2ccccc2)C(c2ccccc2)=C1c1ccccc1 (stereo not given) | 88.2 µM | > 100 µM | 89.8 | > 100 µM | > 100 µM | > 100 | > 100 µM | – | – | – | – | – | – | – | – | – | – | – | – | –
CN(C)CCOC(c1ccccc1)c1ccccc1 | 51.1 µM and > 100 µM | 50.2 µM and > 100 µM | – | 23.9 µM and > 100 µM | 51.5 µM and > 100 µM | – | 46.3 µM and > 100 µM | 50.1 µM and > 100 µM | 44.1 µM and > 100 µM | 44.4 µM and > 100 µM | 34.6 µM | 36 | – | 15.3 | – | 29.3 | 36.7 | 29.4 | 24.6 | –
COC(=O)c1ccc(Cl)cc1NC(=O)C1CCCCC1 | > 100 µM | > 100 µM | > 100 | – | > 100 µM | > 100 | – | – | – | – | – | – | – | – | – | – | – | – | – | –
NC1=NCCN1CC(=O)O | > 10000 µM | > 10000 µM | – | > 10000 µM | > 10000 µM | > 10000 | > 10000 µM | > 10000 µM | > 10000 µM | > 10000 µM | > 10000 µM | > 10000 | – | > 10000 | > 1000 | > 10000 | > 10000 | – | > 10000 | > 10000
O=c1oc2ccc(-n3c(=O)c4ccccc4c4ccccc4c3=O)cc2c2ccccc12 | > 100 µM | > 100 µM | – | > 100 µM | > 100 µM | > 100 | > 100 µM | > 100 µM | > 100 µM | > 100 µM | – | – | – | – | – | – | – | – | – | –
COc1ccc2oc(C(=O)O)c3c2c1CCC3 | > 100 µM | > 100 µM | > 100 | > 100 µM | > 100 µM | – | > 100 µM | – | – | – | – | – | – | – | – | – | – | – | – | –
COc1ccc(OC(C(=O)O)c2ccccc2)c2c1CCCC2=O (stereo not given) | > 100 µM | > 100 µM | > 100 | > 100 µM | > 100 µM | > 100 | > 100 µM | – | – | – | – | – | – | – | – | – | – | – | – | –
O=C1c2ccccc2C(=O)N1C/C=C/CO | > 100 µM | > 100 µM | > 100 | > 100 µM | > 100 µM | > 100 | > 100 µM | – | – | – | – | – | – | – | – | – | – | – | – | –
